Assay: Properties of commercially-available near infrared fluorochromes
Assay type: physicochemical
Details: Cy5.5 free in solution, FIG. 3A
From the text: Fluorescent probes with excitation and emission wavelengths in the near infrared spectrum are used, i.e., 650-1300 nm. Use of this portion of the electromagnetic spectrum maximizes tissue penetration and minimizes absorption by physiologically abundant absorbers such as hemoglobin (<650 nm) and water (>1200 nm). […] Table 1 summarizes information on the properties of six commercially-available near infrared fluorochromes, whose structures are shown in FIGS. 2A and 2B.

- emission wavelength / peak emission: 694 nm
Substance: Cy5.5
